Values of other authors, collected in publication PMC12207880 (The Oncologist, 2025).
Read-outs that look alike come from different tables or passages of the source.

How the values were obtained:
[1] = 200 mg BID
advanced solid tumors = tested on: advanced solid tumors; design: method as in earlier work
[2] = tested on: patients treated with abemaciclib alone
[3] = tested on: patients treated with endocrine therapy combined with palbociclib
[4] = sample size 33 (escalation phase), U.S.A
[5] = sample size 132, U.S.A, France, Netherland

Structure (SMILES): CCN1CCN(Cc2ccc(Nc3ncc(F)c(-c4cc(F)c5nc(C)n(C(C)C)c5c4)n3)nc2)CC1 [Abemaciclib, abemaciclib]
- Ctrough ([1]; n=5): 210 (89%, n=5) ng/mL
- Ctrough ([1]; n=52): 197 (82%, n=52) ng/mL
- Overall DCR (advanced solid tumors; sample size 25, China): 68.0%
- Overall ORR (advanced solid tumors; sample size 25, China): 8.0%
- Overall DCR (advanced solid tumors; [4]): 48.5%
- Overall ORR (advanced solid tumors; [4]): 0%
- hypokalaemia of grade 3 [2]: 2 patients
- hypokalaemia of all grades ([2]; 34 of 130 patients): 26.2%

Structure (SMILES): CC(=O)c1c(C)c2cnc(Nc3ccc(N4CCNCC4)cn3)nc2n(C2CCCC2)c1=O [Palbociclib, palbociclib]
- Overall DCR (advanced solid tumors; sample size 37, U.S.A): 35%
- Overall ORR (advanced solid tumors; sample size 37, U.S.A): 0%
- grade 4 increased GGT ([3]; 1 of 135 patients): 0.7%
- grade 3 increased GGT ([3]; 3 of 135 patients): 2.2%
- overall incidence of increased GGT ([3]; 135 patients): 4.4%

Structure (SMILES): CN(C)C(=O)c1cc2cnc(Nc3ccc(N4CCNCC4)cn3)nc2n1C1CCCC1 [Ribociclib, ribociclib]
- Overall DCR (advanced solid tumors; [5]): 32.6%
- Overall ORR (advanced solid tumors; [5]): 2.3%
